Measured values taken from US20230235397A1, “METHODS FOR CLASSIFICATION AND TREATMENT OF PSYCHOTIC DISORDER SUBJECTS” (CENTRE HOSPITALIER UNIVERSITAIRE VAUDOIS (CHUV), priority 2019, published 2023).

Tested on: Gclm-KO+GBR mice
Assay: MitoQ treatment of Gclm-KO+GBR mice (oxidative stress model), markers in anterior cingulate cortex
Assay type: in vivo
Source text: Treatment with MitoQ (P21-P40) in Gclm-KO mice treated with GBR12909 normalizes NIX, FUNDC1 and LC3B expression levels as well as miR-137 expression intensity when compared to values observed for wild-type mice (FIG. 7). […] Thus, MitoQ has been unexpectedly found to be useful in reversing the miR-137 overexpression, mitophagy and parvalbumin interneuron impairment induced by oxidative stress.
Example 9 relates to an animal model of oxidative stress. Oxidative stress elicits mitophagy in the anterior cingulated cortex (ACC) of Gclm-KO mice (transgenic mice carrying permanent defect in glutathione GSH synthesis). […] Because extranuclear localization of 8-oxo-dG labeling was observed, it could be surmised that mitochondrial DNA (mtDNA) was affected. […] In comparison with WT mice (Gclm-WT+PBS, wherein PBS refers to phosphate-buffered saline, a common buffer used in these experiments as vehicle), levels of the mitophagy receptors NIX and FUNDC1 and of the autophagosome LC3B were reduced in the ACC of Gclm-KO mice (Gclm-KO+PBS, at P40). […] Taken together, these observations are consistent with an oxidative stress-induced mitophagy deficit in prefrontal parvalbumin interneurons.
It has been shown that miR-137 plays a functional role in modulating synaptic function and in regulating the expression of the NIX and FUNDC1 mitophagy receptors.
In view of the detrimental effects of oxidative stress on integrity of parvalbumin interneurons, miR-137 expression level as well as mitophagy during preweaning and pubertal stages of development, it was evaluated whether MitoQ treatment, a selective mitochondria targeted-antioxidant, could rescue these deficits in young KO mice. Treatment with MitoQ (P21-P40) in Gclm-KO+GBR mice normalized NIX, FUNDC1 and LC3B expression levels as well as miR-137 expression intensity, when compared to WT values (FIG. 7). […] Thus, MitoQ can reverse the oxidative stress induced miR-137 overexpression, mitophagy and parvalbumin interneuron impairment, highlighting that the upregulation of miR-137 and subsequent mitophagy defect constitutes the molecular mechanism underlying the oxidative stress-induced parvalbumin interneuron impairment.

[1] = ACC of Gclm-KO+GBR animals, following treatment with MitoQ
[2] = MitoQ P21-P40, Gclm-KO+GBR mice, ACC, compared to WT values (FIG. 7)

For COC1=C(OC)C(=O)C(CCCCCCCCCC[PH](c2ccccc2)(c2ccccc2)c2ccccc2)=C(C)C1=O [MitoQ, mitoquinone], the “abnormalities in cell body numbers of parvalbumin interneurons” value [1] was “restored to WT levels”, the “staining intensity of parvalbumin interneuron processes” value [1] was “restored to WT levels” and the FUNDC1 expression level [2] was “normalized”. For the same compound, the LC3B expression level [2] was “normalized”, the NIX expression level [2] was “normalized” and the miR-137 expression intensity [2] was “normalized”.
